In publication PMC11945486, “TAS1R2/TAS1R3 Single-Nucleotide Polymorphisms Affect Sweet Taste Receptor Activation by Sweeteners: The SWEET Project” (Nutrients, 2025):

Target: T1, human TAS1R2-S212G (subunit alone) (Homo sapiens, UniProt Q8TE23, S212G)
T1 construct: expressed in transfected cells; host or cells: HEK293T-Gα16gust44
T1 sequence (Q8TE23 20-839 S212G): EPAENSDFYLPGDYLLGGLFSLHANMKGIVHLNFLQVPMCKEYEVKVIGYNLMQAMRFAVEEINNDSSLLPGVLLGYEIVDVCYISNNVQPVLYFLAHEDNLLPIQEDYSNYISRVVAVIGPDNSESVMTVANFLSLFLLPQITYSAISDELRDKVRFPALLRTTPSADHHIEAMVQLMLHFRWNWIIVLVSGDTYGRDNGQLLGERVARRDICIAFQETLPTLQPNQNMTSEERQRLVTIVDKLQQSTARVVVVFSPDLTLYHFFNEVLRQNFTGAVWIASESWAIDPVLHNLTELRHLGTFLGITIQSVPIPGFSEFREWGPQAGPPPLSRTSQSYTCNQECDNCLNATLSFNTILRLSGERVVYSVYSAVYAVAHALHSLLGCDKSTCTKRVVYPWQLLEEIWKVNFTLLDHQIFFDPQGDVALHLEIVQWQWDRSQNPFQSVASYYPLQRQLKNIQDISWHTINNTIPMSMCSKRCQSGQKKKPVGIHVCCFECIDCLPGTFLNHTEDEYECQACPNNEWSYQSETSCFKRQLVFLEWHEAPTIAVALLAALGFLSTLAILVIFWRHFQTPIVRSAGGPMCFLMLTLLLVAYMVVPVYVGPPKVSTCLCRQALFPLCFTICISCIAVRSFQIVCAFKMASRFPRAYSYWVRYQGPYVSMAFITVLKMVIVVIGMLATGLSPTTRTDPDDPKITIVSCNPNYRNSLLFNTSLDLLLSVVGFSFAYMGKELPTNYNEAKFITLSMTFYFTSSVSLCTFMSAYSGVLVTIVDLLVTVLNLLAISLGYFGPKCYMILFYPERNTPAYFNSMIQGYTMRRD
Experiment: Calcium mobilisation assay, TAS1R2-S212G subunit alone
Type: cell-based
Text: The coding sequences for TAS1R2 and TAS1R3 were commercially synthesised, and the human codon was optimised for expression in human cells. The coding sequences of human TAS1R2 and TAS1R3 were subcloned and inserted into the mammalian expression vectors pcDNA6/myc-HisA and pcDNA4/myc-HisA (Invitrogen; Thermo Fisher Scientific; Illkirch, France) between the EcoRI and NotI restriction sites, generating the plasmids pcDNA6-TAS1R2 and pcDNA4-TAS1R3, respectively. To increase protein expression in mammalian cells, an upstream start codon was used, which was a sequence called MAX, corresponding to the QBI SP163 element also described in pcDNA4-HisMax (Invitrogen; Thermo Fisher Scientific; Illkirch, France). To measure the expression level of the receptor by immunohistochemistry, we used the FLAG sequence ([…]) in the C-terminal position, which encodes the FLAG tag epitope. […]
The HEK293T cells were kindly provided by Jay P. Slack (Givaudan Flavors Corporation; Cincinnati, OH, USA). […] The fluorescence intensity was measured for 90 s (excitation 488 nm, emission 510 nm) in an automated fluorometric FlexStation®3 Multi-Mode microplate reader (Molecular Devices; San Jose, CA, USA). […] The Ca^2+ changes were expressed as fractional changes in fluorescent light intensity: ΔF/F = (F − F0)/F0, where F was the fluorescent light intensity at each point, and F0 was the value of emitted fluorescent light prior to stimulus application. To calculate dose–response relationships, the changes in fluorescence upon stimulus application were averaged, mock-subtracted and baseline-corrected. […] The half-maximal effective concentrations (EC50 values) and maximal signal amplitudes were calculated using SigmaPlot software (version 15.0) (Systat Software; San Jose, CA, USA).
For in vitro calcium mobilisation assay performed on hTAS1R2-SNPs, hTAS1R3-SNPs and mTAS1R3-I60T, 6 to 7 concentrations were tested for each sweet compound, plus buffer alone. All concentration–receptor combinations were measured in duplicate, and each experiment was repeated at least 4 times (8 wells/concentration). […]

## C=C(C)[C@@H]1CC=C(/C=N/O)CC1 [Perillartine, perillartine]
  EC50: 178 ± 22.7 µM
  R1 = Variant EC50/WT EC50: 2.0
Maximal signal amplitude
  Max ΔF/F0: 0.47 ± 0.02
